Experimental data as given in patent US5118882A, “Streptenols from streptomycetes, and the preparation and use thereof” (Hoechst Aktiengesellschaft, priority 1989, dated 1992).

System: HEP-G2 cells
Experiment: Inhibition of cholesterol biosynthesis (14C-acetate incorporation into cholesterol)
Format: cell-based
Conditions: Homo sapiens, HepG2; HEP-G2 monolayers, 1 h preincubation, 3 h with 14C-sodium acetate; read-out: IC50 value (concentration at which 50% of the cholesterol synthesis was inhibited)
Procedure: 4. Inhibition of cholesterol biosynthesis
The biological effectiveness of the compound of the formula I was determined using cell cultures of cell line HEP-G2. For this purpose, monolayers of HEP-G2 cells were preincubated for one hour in a lipo-protein-free culture medium containing appropriate concentrations of the test substances; after the ^14 C-labeled precursor ^14 C-(sodium acetate) has been added, incubation is continued for three hours. After this, a portion of the cells are subjected to alkaline hydrolysis, an internal standard of ^3 H-cholesterol having been added previously. The lipids of the hydrolysed cells are extracted using chloroform/methanol. Support-cholesterol is added, and this lipid mixture is then separated by means of preparative thin-layer chromatography; the cholesterol band is made visible and then isolated, and the amount ^14 C-cholesterol which has been formed from the ^14 C-precursor is determined scintigraphically. […] In aliquots of the cell culture, the intactness of the cell culture and lack of damage to cells by the influence of preparations is assessed morphologically (in an optical microscope) and biochemically by determining the amount of lactate dehydrogenase in the incubation medium. […]

`CC[C@H](C)C(=O)O[C@H]1C[C@@H](C)C=C2C=C[C@H](C)[C@H](CC[C@@H]3C[C@@H](O)CC(=O)O3)[C@H]21` [lovastatin] gave an IC50 of 20 nM.
